Reference: PMC7661967, “Magnetic Resonance Molecular Imaging of Extradomain B Fibronectin Improves Imaging of Pancreatic Cancer Tumor Xenografts” (Frontiers in Oncology, 2020)
No end group written: not given here.

Key:
[1] = T1 and T2 relaxivity measurement at 3T; type: physicochemical
Method: The T1 and T2 values of MT218 and Gd(HP-DO3A) solutions were determined using a 3T MRS 3000 scanner (MR Solutions, Guildford, UK). Solutions of MT218 were prepared at concentrations of 0, 0.25, 0.5, 1, and 2 mM in DPBS buffer (Gibco, Gaithersburg, MD). T1 values were measured using an inversion recovery-fast low angle shot (IR-FLASH) sequence (τ = 10 ms, TE = 4 ms, FA = 8°, echoes/frames = 128, FOV = 40 mm × 40 mm, slice thickness = 2 mm, number of averages = 1, time delay = 4,000 ms, sample period = 200, matrix = 256 × 128). T2 values were obtained using a multi-echo multi-slice (MEMS) sequence (TE = 15 ms, […], echoes = 10, FOV: 40 mm × 40 mm, slice thickness = 1 mm, number of averages = 1, matrix = 256 × 192). The r1 and r2 relaxivities were calculated from the slopes of 1/T1 and 1/T2 vs. Gd concentration plots, respectively.

[2] = tested on: Capan-1 flank tumor xenografts; test: MRMI of Capan-1 flank tumor xenografts (7T); type: in vivo, human cells in female nu/nu mice
Method: For flank xenograft models, 4 × 10^6 Capan-1 cells suspended in 100 μL of a 6 mg/mL Matrigel (Corning, Corning, NY) solution was injected subcutaneously into the flank of 8-week-old female nu/nu mice. The tumor bearing mice were imaged after tumor volumes exceeded 300 mm^3. For orthotopic intrapancreatic models, the pancreas of 4-week-old female nu/nu mice were surgically exposed via a ~10 mm incision in the left ventral abdomen and the application of gentle pressure to express the spleen and associated pancreatic tissue. 1 × 10^6 BxPC3-GFP-Luc or PANC-1-GFP-Luc cells suspended in 100 μL of a Matrigel solution (6 mg/mL) was injected into the pancreatic tissue using an insulin syringe with a 31G needle. Any leakage of cell suspension was lavaged with DPBS twice to prevent intraabdominal seeding PaCa cells. The peritoneal fascia was closed with absorbable stitches, and the dermis closed with stainless steel wound clips. Prior to imaging, growth of tumor was verified by bioluminescence imaging with intraperitoneal injection of d-luciferin on IVIS Spectrum system (Perkin Elmer, Waltham, MA).
(§1) Flank tumor-bearing mice were anesthetized and a tail vein catheter inserted. MR image acquisition was performed on a 7T Biospin (Bruker, Billerica, MA) preclinical small animal scanner with a volume radiofrequency coil. Axial images were obtained using a multi-spin multi-echo (MSME) MRI sequence (500 ms TR, 8.1 ms TE, 90° FA, 4.50 cm × 4.50 cm FOV, 1.50 mm slice thickness, 16 slices, 2 averages, 200 × 200 matrix, 0.0225 × 0.0225 cm/pixel resolution). Contrast agents were injected at a dose of 0.1 mmol/kg (100 μL) via the tail vein catheter, followed by a saline flush. Images of the tumors were acquired before contrast and at various time points after contrast administration. Gd(HP-DO3A) was used as a control.
Image files were exported and analyzed in Horus software. ROIs were drawn in the tumor, liver, kidney, and muscle. Muscle ROIs were taken from the muscle, with other structures (liver, kidney, tumor) identified after comparison with published images and comparison with anatomical landmarks or bioluminescent imaging. Pancreatic lesions were localized using the liver, kidney, and spleen as anatomical landmarks. […] Size of ROIs drawn for image analysis are summarized in Supplementary Table 1. The contrast-to-noise ratio of the tumor (CNR) was calculated using the following equation, where σnoise is the standard deviation of intensities from an ROI drawn outside of the mouse body:
CNR=Mean IntensityTumor-Mean IntensityMuscle/σnoise.
Image subtraction was performed on images adjusted to the same window and level in FIJI open-source software.
Image contrast was reported as fold enhancement of contrast to noise ratio of post-contrast images over pre-contrast images using Fold Enhancement = CNRpost/CNRpre. Statistical analysis of CNR was performed in Minitab Express (Minitab Inc., State College, PA). One-way ANOVA with Fisher Individual Tests for Differences of Means post-hoc testing was performed to determine statistical significance between >2 means (p < 0.05). Student's T test was used to determine statistical significance between 2 means (p < 0.05).

[3] = Liver CNR in contrast-enhanced MRI; type: in vivo, nu/nu mice; conditions: for liver CNR, MT218 vs Gd(HP-DO3A): 0.1 mmol/kg, p > 0.05
Method: as §1
Mice bearing intrapancreatic tumors were anesthetized and a tail vein catheter was inserted. Image acquisition was performed on a MR Solutions 3T MRS 3000 scanner with a mouse radiofrequency coil. Axial images were obtained using a Fast Spin Echo (FSE) MRI sequence (305 ms TR, 11 ms TE, 90° FA, 4 cm × 4 cm FOV, 1 mm slice thickness, 10 slices, echo train length = 4, echo spacing = 11 ms, 4 averages, 256 × 256 matrix, 0.0156 × […] cm/pixel resolution) with respiratory gating. Images were acquired before contrast and at different time points after contrast injection at a dose of 0.1 mmol/kg (100 μL). For competitive binding experiments, a 5:1 molar ratio of free ZD2 peptide to MT218 was injected in mice bearing intrapancreatic BxPC3 tumor xenografts (n = 3) at a dose of 0.1 mmol MT218/kg (100 μL). Images obtained on the MR Solutions 3T scanner were normalized using the Surscalereader.exe (MR Solutions, Guildford, UK) program supplied.
Image files were exported and analyzed in Horus software. ROIs were drawn in the tumor, liver, kidney, and muscle. […] The contrast-to-noise ratio of the tumor (CNR) was calculated using the following equation, where σnoise is the standard deviation of intensities from an ROI drawn outside of the mouse body:
The contrast to noise ratio of the liver (CNR) was calculated using the following equation: […]

[4] = Spleen CNR in contrast-enhanced MRI; type: in vivo, nu/nu mice; conditions: BxPC3-GFP-Luc intrapancreatic model (n = 3), p > 0.05
Method: as §1
(§2) Mice bearing intrapancreatic tumors were anesthetized and a tail vein catheter was inserted. Image acquisition was performed on a MR Solutions 3T MRS 3000 scanner with a mouse radiofrequency coil. […]
(§3) Image files were exported and analyzed in Horus software. […] The contrast-to-noise ratio of the tumor (CNR) was calculated using the following equation, where σnoise is the standard deviation of intensities from an ROI drawn outside of the mouse body: […]

[5] = Kidney CNR in contrast-enhanced MRI; type: in vivo, nu/nu mice; conditions: all tested mice, p > 0.05; BxPC3-GFP-Luc (n = 3) and PANC-1-GFP-Luc (n = 6) models
Method: as §1, §2, §3

## ZD2-N3-Gd(HP-DO3A) (TVRTSAD; also: conjugated via N3 to Gd(HP-DO3A) contrast agent, end not given here) [MT218, small molecular conjugate of ZD2 peptide to a macrocyclic clinical MRI contrast agent Gd(HP-DO3A)]
[1]; 0-2 mM MT218 in DPBS buffer, IR-FLASH
  T1 relaxivity (r1): 6.07 ± 1.13 s⁻¹ mM⁻¹
[1]; 0-2 mM MT218 in DPBS buffer, MEMS
  T2 relaxivity (r2): 8.20 ± 0.18 s⁻¹ mM⁻¹
[1]; targeted agent vs corresponding clinical agent
  T1 relaxivity relative to Gd(HP-DO3A): ~2 fold
[2]; 0.1 mmol/kg, 5 min post-injection, MT218 vs Gd(HP-DO3A)
  contrast enhancement in tumor periphery: Stronger contrast enhancement
[2]; 0.1 mmol/kg, 15 min post-injection, MT218 n = 7
  maximum increase of tumor CNR (post/pre): 4.8 fold
[2]; 0.1 mmol/kg, after injection
  contrast enhancement in tumor core: gradually increased
[2]; 0.1 mmol/kg, early time points (5–15 min post-contrast)
  enhancement in tumor periphery, subtraction images: strong initial enhancement
[2]; 0.1 mmol/kg, later time points (25–35 min) for MT218, all time points for Gd(HP-DO3A)
  contrast enhancement throughout tumors, subtraction images: robust tumor contrast enhancement throughout the tumors
[2]; 0.1 mmol/kg, post-injection
  duration for which CNR increase maintained: at least 35 min
[2]; Capan-1 flank, control Gd(HP-DO3A), p < 0.05
  MT218 CNR relative to Gd(HP-DO3A) control: 273%
[2]; Capan-1 flank, vs Gd(HP-DO3A), p < 0.05
  CNR relative to clinical agent: 2.7 times
[3]; BxPC3-GFP-Luc and PANC-1-GFP-Luc intrapancreatic models
  liver CNR, MT218 vs Gd(HP-DO3A): No difference in CNR
[3]; Capan-1 flank model
  liver CNR, MT218 vs Gd(HP-DO3A): No significant difference in CNR
[3]; MRMI with MT218
  non-specific signal enhancement in hepatic tissue: Minimal non-specific signal enhancement
[4]
  spleen CNR, MT218 vs Gd(HP-DO3A): No significant (n.s, p>0.05) difference in spleen CNR
[5]
  kidney CNR, MT218 vs Gd(HP-DO3A): No significant (n.s, p>0.05) difference in kidney CNR
